We go through one compound from patent US8013153B2, “Substituted pyrimidine kinase inhibitors” (Janssen Pharmaceutica, N.V., priority 2006, dated 2011).

The target in one assay is B-Raf (Homo sapiens, UniProt P15056). Briefly: RAF Kinase Screening Assay (B-Raf). As to conditions: Compound 50 tested at 30 μM.
Another assay concerns the target T1, HER2 cytoplasmic domain (Homo sapiens, UniProt P04626).
T1 construct: polyhistidine (N)
Description: HER2 Kinase Screening Assay. It is filed as biochemical. To be noted: > means no observed 50% inhibition at the indicated test concentration; ~ means approximately 50% inhibition at that concentration.

In assay [1] the test system is HeLa cervical adenocarcinoma. Description: Inhibition of in vitro cell proliferation (HeLa).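 Further: cells exposed to compound for 24 h, then labelled 24 h with methyl 14C-thymidine, with uptake into DNA counted by scintillation against DMSO-only control wells.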 Type of assay: cell-based, human. As to conditions: Homo sapiens, 14C-thymidine incorporation. (In general: Incorporation of labelled thymidine or its analogues reports DNA synthesis.)
Assay [2] deals with HCT116 human colorectal carcinoma. Briefly: In vivo inhibition of tumor growth, HCT116 model. Also on record: species or system athymic nude mice. As to conditions: 10 mg/kg daily, oral. An excerpt:
Female Nu/Nu˜nuBR athymic nude mice (obtained from Charles River Laboratories), at the age of 5-6 weeks were feed water and an irradiated standard rodent diet ad libitum, and housed in specific pathogen-free conditions, according to the guidelines of the American Association for Accreditation of Lab Animal Care (AALAC).
Mice were implanted subcutaneously in the right hind flank with the various tumor cell suspensions in HBSS containing 10% FBS: A431 human epidermoid carcinoma (4×10^6 cells/mouse), HCT116 human colorectal carcinoma (4×10^6 cells/mouse) and A375 human skin melanoma (2×10^6 cells/mouse). […]
The tumors were allowed to establish growth for 10 to 14 days. Tumor size was measured every 3 days. […]
Tumor measurements and body weights were recorded individually (2×/week) during the treatment period of the experiment. Tumors were measured using a digital caliper. Data was recorded/calculated using Study Director software (StudyLog Systems, Inc.) and graphs were created in GraphPad Prizm.
The volume of each tumor in an animal was calculated according to the formula: (D×d^2)/2, where the diameters were determined from two orthogonal measurements on each tumor. The mean tumor volume was determined by averaging all tumor volumes in each group. The mean body weight was determined by averaging all body weights in each group. […]

A further assay concerns the target T2, CDK1:Cyclin-B (Homo sapiens, UniProt P06493).
T2 construct: purchased New England Biolabs, Beverly, Mass; 6020; host or cells: insect cells
Description: CDK1 Screening Assay. It is filed as biochemical.

For a further assay, the target named is V600E Raf mutant (Homo sapiens, UniProt P15056, V600E). Briefly: RAF Kinase Screening Assay (V600E Raf mutant). As to conditions: Compound 50 tested at 30 μM.
V600E Raf mutant, sequence (P15056 whole entry V600E): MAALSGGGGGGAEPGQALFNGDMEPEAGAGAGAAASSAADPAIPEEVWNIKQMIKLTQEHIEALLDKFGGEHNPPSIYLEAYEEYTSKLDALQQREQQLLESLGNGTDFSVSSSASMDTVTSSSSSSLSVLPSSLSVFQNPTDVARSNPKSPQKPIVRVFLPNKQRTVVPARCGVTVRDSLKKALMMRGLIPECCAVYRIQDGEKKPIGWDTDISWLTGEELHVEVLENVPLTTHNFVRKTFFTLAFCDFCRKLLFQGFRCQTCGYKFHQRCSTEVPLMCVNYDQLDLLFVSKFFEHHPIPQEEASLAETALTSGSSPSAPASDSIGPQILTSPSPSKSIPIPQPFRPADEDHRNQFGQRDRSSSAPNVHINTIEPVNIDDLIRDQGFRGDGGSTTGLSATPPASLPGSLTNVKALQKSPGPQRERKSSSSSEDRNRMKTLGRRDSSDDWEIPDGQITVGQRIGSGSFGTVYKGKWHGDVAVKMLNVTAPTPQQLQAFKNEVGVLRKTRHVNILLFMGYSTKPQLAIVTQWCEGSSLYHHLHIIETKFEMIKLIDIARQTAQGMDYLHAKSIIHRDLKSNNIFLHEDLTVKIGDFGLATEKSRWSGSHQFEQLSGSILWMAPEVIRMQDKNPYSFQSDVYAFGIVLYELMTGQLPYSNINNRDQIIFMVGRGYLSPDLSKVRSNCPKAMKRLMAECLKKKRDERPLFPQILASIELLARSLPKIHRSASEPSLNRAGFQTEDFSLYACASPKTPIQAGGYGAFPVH
A further assay deals with tyrosine kinase KIT (Homo sapiens, UniProt P10721). Briefly: KIT Kinase Screening Assay.
tyrosine kinase KIT, sequence (P10721 26-976): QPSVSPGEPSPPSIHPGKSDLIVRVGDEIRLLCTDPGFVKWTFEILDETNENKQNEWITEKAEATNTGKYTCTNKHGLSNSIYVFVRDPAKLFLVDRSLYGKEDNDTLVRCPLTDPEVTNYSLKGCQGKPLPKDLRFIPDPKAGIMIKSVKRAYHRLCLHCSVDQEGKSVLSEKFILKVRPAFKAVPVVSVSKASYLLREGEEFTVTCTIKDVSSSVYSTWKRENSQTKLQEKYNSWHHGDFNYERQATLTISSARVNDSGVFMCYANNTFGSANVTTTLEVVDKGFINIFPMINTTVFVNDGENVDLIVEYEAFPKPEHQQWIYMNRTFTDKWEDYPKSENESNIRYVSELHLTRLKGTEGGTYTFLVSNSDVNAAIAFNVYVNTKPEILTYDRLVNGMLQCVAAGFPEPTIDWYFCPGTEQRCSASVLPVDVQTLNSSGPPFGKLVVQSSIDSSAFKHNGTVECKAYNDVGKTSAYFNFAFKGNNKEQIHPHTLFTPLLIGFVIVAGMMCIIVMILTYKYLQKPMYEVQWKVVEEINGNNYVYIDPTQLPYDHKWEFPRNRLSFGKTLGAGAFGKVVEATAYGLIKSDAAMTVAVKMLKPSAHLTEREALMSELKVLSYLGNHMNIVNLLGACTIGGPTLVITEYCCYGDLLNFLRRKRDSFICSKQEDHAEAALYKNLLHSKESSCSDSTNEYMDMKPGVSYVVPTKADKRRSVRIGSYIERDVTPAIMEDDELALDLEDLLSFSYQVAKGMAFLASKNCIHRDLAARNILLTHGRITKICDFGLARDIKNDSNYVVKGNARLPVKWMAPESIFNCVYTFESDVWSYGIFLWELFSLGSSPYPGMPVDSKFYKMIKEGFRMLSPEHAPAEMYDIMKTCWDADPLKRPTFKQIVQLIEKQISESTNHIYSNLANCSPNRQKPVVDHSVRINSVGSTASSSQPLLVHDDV
The subject of a further assay is A375 malignant melanoma. Description: Inhibition of in vitro cell proliferation (A375).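 Further: cells plated for 24 h, given compound for 24 h, then labelled with 14C-thymidine for another 24 h, with DMSO-only wells as control and counts read by scintillation.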 Type of assay: cell-based, human. As to conditions: Homo sapiens, A-375, 14C-thymidine incorporation.

Entries after “also recorded” stand apart in the source; their conditions may differ.

B-Raf, sequence (P15056 whole entry, species assumed, the tested form may be a part): as the sequence (P15056 whole entry V600E) above, with E600V counted along it
T1 sequence (P04626 676-1255 limits assumed): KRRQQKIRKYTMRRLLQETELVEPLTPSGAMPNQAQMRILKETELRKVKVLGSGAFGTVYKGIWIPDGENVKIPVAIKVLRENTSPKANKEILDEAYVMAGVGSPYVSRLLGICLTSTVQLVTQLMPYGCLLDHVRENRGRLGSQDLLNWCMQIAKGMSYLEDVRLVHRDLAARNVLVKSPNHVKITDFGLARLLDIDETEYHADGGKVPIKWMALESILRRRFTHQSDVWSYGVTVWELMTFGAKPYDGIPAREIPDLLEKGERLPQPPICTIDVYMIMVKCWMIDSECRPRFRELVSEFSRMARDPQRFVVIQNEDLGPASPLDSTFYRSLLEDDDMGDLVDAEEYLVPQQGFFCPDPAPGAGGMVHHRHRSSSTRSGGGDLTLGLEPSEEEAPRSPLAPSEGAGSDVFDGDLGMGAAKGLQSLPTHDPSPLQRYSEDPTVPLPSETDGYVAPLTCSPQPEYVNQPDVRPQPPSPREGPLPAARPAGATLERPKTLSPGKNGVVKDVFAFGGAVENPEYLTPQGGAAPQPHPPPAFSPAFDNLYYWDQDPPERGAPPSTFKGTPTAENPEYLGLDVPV
T2 sequence (P06493 whole entry): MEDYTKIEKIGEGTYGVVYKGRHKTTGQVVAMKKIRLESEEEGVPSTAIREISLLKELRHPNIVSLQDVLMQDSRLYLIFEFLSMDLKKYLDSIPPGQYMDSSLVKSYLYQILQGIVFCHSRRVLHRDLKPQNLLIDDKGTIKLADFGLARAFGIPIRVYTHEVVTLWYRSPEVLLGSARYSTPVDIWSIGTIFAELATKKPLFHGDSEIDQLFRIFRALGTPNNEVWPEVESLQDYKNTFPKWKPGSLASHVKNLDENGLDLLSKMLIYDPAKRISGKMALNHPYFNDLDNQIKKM
T2 sequence (P14635 whole entry partner): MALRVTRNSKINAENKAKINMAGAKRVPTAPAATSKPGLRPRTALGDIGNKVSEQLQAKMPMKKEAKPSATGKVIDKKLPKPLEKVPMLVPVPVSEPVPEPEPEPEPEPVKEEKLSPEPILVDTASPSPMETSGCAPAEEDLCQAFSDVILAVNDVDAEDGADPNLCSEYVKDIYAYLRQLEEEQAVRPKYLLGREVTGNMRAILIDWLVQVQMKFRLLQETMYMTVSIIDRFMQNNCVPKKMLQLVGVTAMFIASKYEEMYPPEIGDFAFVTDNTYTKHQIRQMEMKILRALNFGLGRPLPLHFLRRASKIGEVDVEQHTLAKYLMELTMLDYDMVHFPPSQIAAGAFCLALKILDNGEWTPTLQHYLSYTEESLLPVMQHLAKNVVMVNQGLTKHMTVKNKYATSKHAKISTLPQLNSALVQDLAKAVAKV

One may read the IC50 as the concentration that gives 50% inhibition. Higher therefore signals a need for much substance. Take `CCNC(=O)Nc1ccc(Oc2ncnc(N)c2/C=N/OC)cc1Cl` [Cpd 50, 1-{4-[6-amino-5-(methoxyimino-methyl)-pyrimidin-4-yloxy]-2-chloro-phenyl}-3-ethyl-urea]: the “activity against B-Raf” value at B-Raf is on record as “no activity; also recorded: not active”. The IC50 against HER2 cytoplasmic domain is over 100 µM; in assay [1], 3.57 µM; against CDK1:Cyclin-B it was over 100 µM; at tyrosine kinase KIT it was 0.5 µM; with A375 malignant melanoma, 3.91 µM. Also, in assay [2], the “inhibition of tumor growth” value is recorded as under 50%. The “activity against the V600E Raf mutant” value on V600E Raf mutant was “no activity; also recorded: not active”.
